Source: US20090203708A1, “NOVEL SUBSTITUTED-1-H-QUINAZOLINE-2,4-DIONE DERIVATIVES, PREPARATION METHOD THEREOF AND PHARMACEUTICAL COMPOSITION CONTAINING THE SAME” (Korea Research Institute of Chemical Technology, priority 2006, published 2009)

Experiments:
[1] = molecular target: human serotonin 5-HT6 receptor (Homo sapiens, UniProt P50406); assay: [3H]LSD binding assay for cloned 5-HT6 receptors
human serotonin 5-HT6 receptor, sequence (P50406 whole entry): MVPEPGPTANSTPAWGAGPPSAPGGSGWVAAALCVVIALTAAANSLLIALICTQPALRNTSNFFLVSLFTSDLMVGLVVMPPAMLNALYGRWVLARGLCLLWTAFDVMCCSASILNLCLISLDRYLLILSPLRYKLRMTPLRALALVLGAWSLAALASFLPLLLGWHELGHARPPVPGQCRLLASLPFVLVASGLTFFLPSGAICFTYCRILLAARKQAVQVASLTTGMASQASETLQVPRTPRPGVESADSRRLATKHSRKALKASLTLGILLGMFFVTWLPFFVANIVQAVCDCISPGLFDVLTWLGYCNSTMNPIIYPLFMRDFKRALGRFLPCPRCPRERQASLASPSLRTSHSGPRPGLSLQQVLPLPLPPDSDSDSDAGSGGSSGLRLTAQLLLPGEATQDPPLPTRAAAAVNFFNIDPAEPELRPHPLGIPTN

SMILES | melting point | IC50 [1]
CN1CCN(c2cc(Cl)cc3c2c(=O)n(-c2ccccc2)c(=O)n3Cc2ccccc2)CC1 [Example 8, 1-benzyl-7-chloro-5-(4-methyl-piperazin-1-yl)-3-phenyl-1H-quinazoline-2,4-dione] | 111 to 119 °C | 167 nM
CN1CCN(c2cc(Cl)cc3c2c(=O)n(Cc2ccncc2)c(=O)n3Cc2ccccc2)CC1 [Example 48, 1-benzyl-7-chloro-5-(4-methyl-piperazin-1-yl)-3-pyridin-4-ylmethyl-1H-quinazoline-2,4-dione] | 94 to 100 °C | 33.3 nM
CN1CCN(c2cc(Cl)cc3c2c(=O)n(Cc2cccc(O)c2)c(=O)n3Cc2ccccc2)CC1 [Example 29, 1-benzyl-7-chloro-3-(3-hydroxy-benzyl)-5-(4-methyl-piperazin-1-yl)-1H-quinazoline-2,4-dione] | 234 to 236 °C | 15 nM
CN1CCN(c2cc(Cl)cc3c2c(=O)n(Cc2ccc([N+](=O)[O-])cc2)c(=O)n3Cc2ccccc2)CC1 [Example 33, 1-benzyl-7-chloro-5-(4-methyl-piperazin-1-yl)-3-(4-nitro-benzyl)-1H-quinazoline-2,4-dione] | 109 to 113 °C | 15.4 nM
CN1CCN(c2cc(Cl)cc3c2c(=O)n(Cc2cccc(N)c2)c(=O)n3Cc2ccccc2)CC1 [Example 35, 3-(3-amino-benzyl)-1-benzyl-7-chloro-5-(4-methyl-piperazin-1-yl)-1H-quinazoline-2,4-dione] | 260 to 265 °C | 40.2 nM
COc1cccc(Cn2c(=O)c3c(N4CCN(C)CC4)cc(Cl)cc3n(Cc3ccccc3)c2=O)c1 [Example 26, 1-benzyl-7-chloro-3-(3-methoxy-benzyl)-5-(4-methyl-piperazin-1yl)-1H-quinazoline-2,4-dione] | 98 to 110 °C | 7.9 nM
CCn1c(=O)n(Cc2ccccc2)c(=O)c2c(N3CCN(C)CC3)cc(Cl)cc21 [Example 51, 3-benzyl-7-chloro-1-ethyl-5-(4-methyl-piperazin-1-yl)-1H-quinazoline-2,4-dione] | 68 to 75 °C | 729 nM
COc1cccc(Cn2c(=O)c3c(N4CCNCC4)cc(Cl)cc3n(Cc3ccccc3)c2=O)c1 [Example 64, 1-benzyl-7-chloro-3-(3-methyoxy-benzyl)-5-piperazin-1-yl-1H-quinazoline-2,4-dione] | 124 to 130 °C | 6.4 nM
CN1CCN(c2cc(Cl)cc3c2c(=O)n(Cc2ccc(O)cc2)c(=O)n3Cc2ccccc2)CC1 [Example 30, 1-benzyl-7-chloro-3-(4-hydroxy-benzyl)-5-(4-methyl-piperazin-1-yl)-1H-quinazoline-2,4-dione] | 138 to 140 °C | 27 nM
CN1CCN(c2cc(Cl)cc3c2c(=O)n(Cc2ccc(C#N)cc2)c(=O)n3Cc2ccccc2)CC1 [Example 37, 4-[1-benzyl-7-chloro-5-(4-methyl-piperazin-1-yl)-2,4-dioxo-1,4-dihydro-2H-quinazoline-3-ylmethyl]-benzonitrile] | 99 to 105 °C | 27.1 nM
O=c1c2c(N3CCNCC3)cc(Cl)cc2n(Cc2ccccc2)c(=O)n1Cc1ccccc1O [Example 65, 1-benzyl-7-chloro-3-(2-hydroxy-benzyl)-5-piperazin-1-yl-1H-quinazoline-2,4-dione] | 113 to 130 °C | 5.9 nM
CN1CCN(c2cc(Cl)cc3[nH]c(=O)n(Cc4ccccc4)c(=O)c23)CC1 [Example 49, 3-benzyl-7-chloro-5-(4-methyl-piperazin-1-yl)-1H-quinazoline-2,4-dione] | 208 to 210 °C | > 1000 nM
COc1ccc(-n2c(=O)c3c(N4CCN(C)CC4)cc(Cl)cc3n(Cc3ccccc3)c2=O)cc1 [Example 9, 1-benzyl-7-chloro-3-(4-methoxy-phenyl)-5-(4-methyl-piperazin-1-yl)-1H-quinazoline-2,4-dione] | 155 to 158 °C | 12.4 nM

Now those with a lower IC50 [1], led by results:

melting point | IC50 [1] | SMILES
129 to 134 °C | 5.7 nM | O=c1c2c(N3CCNCC3)cc(Cl)cc2n(Cc2ccccc2)c(=O)n1Cc1ccccc1[N+](=O)[O-] [Example 66, 1-benzyl-7-chloro-3-(2-nitro-benzyl)-5-piperazin-1-yl-1H-quinazoline-2,4-dione]
163 to 169 °C | 4.2 nM | CN1CCN(c2cc(Cl)cc3c2c(=O)n(CC2CCCCC2)c(=O)n3Cc2ccccc2)CC1 [Example 6, 1-benzyl-7-chloro-3-cyclohexylmethyl-5-(4-methyl-piperazin-1-yl)-1H-quinazoline-2,4-dione]
90 to 94 °C | 2.7 nM | COC(=O)c1ccc(Cn2c(=O)c3c(N4CCN(C)CC4)cc(Cl)cc3n(Cc3ccccc3)c2=O)cc1 [Example 38, 4-[1-benzyl-7-chloro-5-(4-methyl-piperazin-1-yl)-2,4-dioxo-1,4-dihydro-2H-quinazoline-3-ylmethyl]-benzoic acid methyl ester]
75 to 89 °C | 3.2 nM | CN1CCN(c2cc(Cl)cc3c2c(=O)n(Cc2cccc4ccccc24)c(=O)n3Cc2ccccc2)CC1 [Example 46, 1-benzyl-7-chloro-5-(4-methyl-piperazin-1-yl)-3-naphthalen-1-ylmethyl-1H-quinazoline-2,4-dione]
155 to 159 °C | 3.1 nM | CCn1c(=O)c2c(N3CCN(C)CC3)cc(Cl)cc2n(Cc2ccccc2)c1=O [Example 2, 1-benzyl-7-chloro-3-ethyl-5-(4-methyl-piperazin-1-yl)-1H-quinazoline-2,4-dione]
96 to 99 °C | 5.1 nM | Cc1ccc(Cn2c(=O)c3c(N4CCN(C)CC4)cc(Cl)cc3n(Cc3ccccc3)c2=O)cc1C [Example 39, 1-benzyl-7-chloro-3-(3,4-dimethyl-benzyl)-5-(4-methyl-piperazin-1-yl)-1H-quinazoline-2,4-dione]
130 to 132 °C | 2.5 nM | CN1CCN(c2cc(Cl)cc3c2c(=O)n(Cc2ccccc2O)c(=O)n3Cc2ccccc2)CC1 [Example 28, 1-benzyl-7-chloro-3-(2-hydroxy-benzyl)-5-(4-methyl-piperazin-1-yl)-1H-quinazoline-2,4-dione]
115 to 123 °C | 3.4 nM | O=c1c2c(N3CCNCC3)cc(Cl)cc2n(Cc2ccccc2)c(=O)n1Cc1ccccc1 [Example 57, 1,3-dibenzyl-7-chloro-5-piperazin-1-yl-1H-quinazoline-2,4-dione]
62 to 68 °C | 3.6 nM | CC(C)CCn1c(=O)c2c(N3CCN(C)CC3)cc(Cl)cc2n(Cc2ccccc2)c1=O [Example 5, 1-benzyl-7-chloro-3-(3-methyl-butyl)-5-(4-methyl-piperazin-1-yl)-1H-quinazoline-2,4-dione]
